This note sets out measurements from patent US11150251B2, “Bi-functional arginine-glycine-aspartic acid (RGD) peptides and methods to promote angiogenesis” (Clemson University Research Foundation, priority 2016, dated 2021).

The assay deals with HUVECs. In words: HUVEC vascular network formation in 3D multi-signaling alginate hydrogels (integrin-binding peptide + QK peptide). To be noted: 5% (w/w) MMP-responsive QK peptides, preliminary data. Type of assay: cell-based, human. The text has this:
To synergize with the α1 peptide, we used the α1 peptide and an MMP-responsive QK peptide (i.e., GPQG↓IAGKLTWQELYQLKYKGI, SEQ ID NO:41) to prepare an alginate-based injectable, multi-signaling hydrogels (FIG. 9). The MMP-responsive QK peptide was selected to introduce cell-dictated local release of angiogenic factors to recapitulate the pro-angiogenic microenvironment in vivo, where matrix bound VEGF is released by MMPs. Alginates was selected because it has been used as a biocompatible, injectable hydrogel-forming material to treat ischemic diseases.
We developed a modular approach to prepare the multi-signaling hydrogels (FIG. 10). Briefly, we have prepared alginates functionalized with α1 peptide (10% (w/w)) as well as alginates functionalized with MMP-responsive QK peptide (10% (w/w)) using click chemistry. We then mixed these two alginates at a ratio 1:1 (w/w) to prepare multi-signaling hydrogels to simultaneously engage αvβ3, VLA-6 integrins and VEGFR2. This modular approach allowed us to rapidly prepare alginates with different peptide functionalization to screen for an optimal formulation to support EC morphogenesis.

For the substance “GPQG↓IAGKLTWQELYQLKYKGI (GPQGIAGKLTWQELYQLKYKGI) [MMP-responsive QK peptides, QK peptide with MMP degradable linkage]”, the “EC vascular network formation at given QK peptide content” value is reported as “sufficient to promote EC vascular network formation”.
